Measured values taken from the NIST ThermoML archive (doi:10.1016/j.jct.2007.03.012).

Settings: Liquid, Bellows volumetry

CCC [propane]
mass density [kg/m3]
Settings	280 K	300 K	320 K	340 K	360 K	380 K	400 K	420 K	440 K
1000 kPa	520.5	489.81	–	–	–	–	–	–	–
2000 kPa	522.64	492.87	457.48	–	–	–	–	–	–
3000 kPa	524.74	495.95	462.23	418.14	–	–	–	–	–
5000 kPa	528.56	501.37	470.53	433.26	380.9	–	–	–	–
10000 kPa	537.44	512.99	486.59	457.48	424.08	384.1	334.74	–	–
20000 kPa	551.94	530.94	509.27	486.91	463.3	438.22	411.69	384.77	357.43
30000 kPa	563.74	544.91	525.89	506.87	487.16	466.67	445.87	425.47	405.22
40000 kPa	573.78	556.1	539.36	522.28	505.03	487.15	469.1	451.66	434.68
50000 kPa	582.55	566.32	550.64	534.97	519.45	503.08	486.87	471.39	456.37
60000 kPa	590.49	575.16	560.7	545.94	531.56	516.47	501.44	487.29	473.51
70000 kPa	597.67	583.22	569.45	555.7	542.12	527.94	513.89	500.74	488.02
80000 kPa	604.54	590.34	577.41	564.27	551.67	538.06	524.67	512.43	500.46
90000 kPa	610.6	597.08	584.63	572.21	560.11	547.06	534.43	522.77	511.55
100000 kPa	616.37	603.47	591.38	579.45	568.02	555.29	543.41	532.04	521.4
120000 kPa	627.11	614.69	603.54	592.54	581.93	570.05	558.91	548.04	538.39
140000 kPa	636.51	624.98	614.39	603.89	593.99	582.94	572.19	562.28	553.07
160000 kPa	645.22	634.04	624.07	614.28	604.85	594.15	583.93	574.66	565.84
180000 kPa	653.38	642.55	632.92	623.6	614.61	604.41	594.64	585.51	577.32
200000 kPa	660.82	650.24	641.18	632.17	623.73	613.68	604.15	595.61	587.63
